# Laboratory results taken from patent publication US5204373A, “Farnesylated tetrahydro-naphthalenols as hypolipidemic agents” (Bristol-Myers Squibb Company, priority 1991, dated 1993).
# Assays:
# [1] = tested on: 6-week old male chickens; assay: In vivo lipid metabolism evaluation in normocholesterolemic chickens (serum cholesterol pools); parameters: species or system chicken; conditions: test compound 50 ppm in corn-soybean diet for four weeks; for LDL Cholesterol: control 62.7 ± 2.5; for HDL Cholesterol: control 99.9 ± 1.9; for Total Cholesterol: fasted 36 h, refed 48 h, control 183.0 ± 4.5
# Experimental: Serum cholesterol, triglycerides, low density and high density liproprotein cholesterol as determined in drug treated birds.
# (§1) Newborn male chicks (8 for each group) were raised on a standard corn-soybean based control diet for two weeks and then switched to either control or experimental diets for four weeks. Drug treatment consisted of the addition of test compounds to the corn-soybean-based diet at a concentration of 50 ppm. At the end of the feeding period, all the birds were fasted (36 hours) and refed (48 hours) to induce cholesterolgenic enzymes prior to sacrifice. The specific activity of HMGR, total serum cholesterol levels, LDL cholesterol and HDL cholesterol pools were determined using previously described methods (Qureshi et al., J. Biol. Chem., 261, 10544 (1986)) (Table 1).
# [2] = tested on: β-Hydroxy-β-Methylglutaryl Coenzyme A Reductase (HMGR); assay: Ex vivo HMGR suppression in the liver of drug dosed chickens; parameters: species or system chicken; conditions: test compound 50 ppm in diet for four weeks, control 33.8
# Experimental: β-Hydroxy-β-Methylglutaryl Coenzyme A Reductase (HMGR) activity in the liver of drug dosed chickens.
# as §1
# [3] = tested on: LDL; assay: LDL antioxidant assay (conjugated diene formation); format: biochemical, rabbit; conditions: for LR (end of lag phase of LDL oxidation) vs control: whole rabbit plasma incubated with drug, LDL isolated, time of first derivative maximum of conjugated diene kinetic curve
# Experimental: Inhibition of LDL oxidation as measured by conjugated diene formation.
# Whole rabbit plasma was incubated with either vehicle or drug, and the LDL was isolated by ultracentrifugation. EDTA was removed by dialysis and analysis of co-dependent LDL oxidation was determined by conjugated diene formation using the protocol established by Esterbauer et al., (Free Radical Res. Commun. 6(1), 75-75 (1989)). The time of the first derivative maximum in the kinetic curves, corresponding to the end of the lag phase (LR) of the reaction, indicates both the intrinsic effectiveness of the antioxidant combined with its local concentration with in the LDL particles. […] Substitution of methylene for oxygen at position 1 would diminish antioxidant capacity.
Structure (SMILES),LDL Cholesterol [1],HDL Cholesterol [1],Total Cholesterol [1],HMGR (specific activity) [2],LR (end of lag phase of LDL oxidation) vs control [3],"LDL antioxidation properties (in words) ([3]; rabbit LDL, conjugated diene formation)"
"CC(C)=CCC/C(C)=C/CC/C(C)=C/CCC1(C)CCc2cc(O)ccc2O1 (centres unmarked) [Tocotrienol, reference compound]",42.8 ± 2.8,91.7 ± 1.0,149.8 ± 4.5,13.6,2.01,–
"CC(C)=CCC/C(C)=C/CC/C(C)=C/CCC1(C)CCc2cc(O)ccc2C1 (centres unmarked) [Compound 12, 5,6,7,8-Tetrahydro-6-Methyl-6-(4,8,12-Trimethyl-3(E), (7E), 11-tridecatrienyl)-2-Naphthalenol]",28.4 ± 1.3,85.3 ± 1.3,125.5 ± 3.0,14.6,1.32,exhibits LDL antioxidation properties
